Test [1] has as its system T47D (PI3Kα-H1047R) cell line. The experiment in a line: HTRF phospho-AKT(S473) cell assay in T47D cells. In kind it is cell-based, human. The method in brief:
(§1)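 HTRF read-out of phospho-AKT(S473) in lysates gave IC50 values after 2 h compound exposure at 37° C. Dose series was 12 points at 1:3, topping at 5 μM for T47D and 10 μM for SKBR3. Only SKBR3 received 70 ng/ml PDGF-BB during the last 15 minutes.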
In general terms: TR-FRET usually uses a lanthanide donor and a delayed reading to cut background.

Test [2] deals with SKBR3 (PI3Kα-Wild Type) cell line. The experiment in a line: HTRF phospho-AKT(S473) cell assay in SKBR3 cells. Format: cell-based, human. The gist of the method: as §1
Where [3] appears, read: Homo sapiens; T47D (PI3Kα-H1047R) cells, HTRF phospho-AKT(S473), 2 hours compound incubation.
[4] abbreviates: Homo sapiens, SK-BR-3; SKBR3 (PI3Kα-Wild Type) cells, HTRF phospho-AKT(S473), 2 hours compound incubation, PDGF-BB stimulated.
[5] abbreviates: Homo sapiens; HTRF phospho-AKT(S473), T47D (PI3Kα-H1047R) cells, 2 hours compound incubation.
[6] abbreviates: Homo sapiens, SK-BR-3; HTRF phospho-AKT(S473), SKBR3 (PI3Kα-Wild Type) cells, 2 hours compound incubation, PDGF-BB stimulated.

A word on the IC50: it is the concentration that inhibits the measured activity by half. Higher therefore signals weaker potency in that assay. `Cc1cc([C@@H](C)Nc2ccc(Cl)nc2C(=O)NS(C)(=O)=O)c2nc(N3Cc4nn(-c5ccccc5C)c(N)c4C3)n(C)c(=O)c2c1` [Compound 350, (R)-3-((1-(2-(3-amino-2-(o-tolyl)-2,6-dihydropyrrolo[3,4-c]pyrazol-5(4H)-yl)-3,6-dimethyl-4-oxo-3,4-dihydroquinazolin-8-yl)ethyl)amino)-6-chloro-N-(methylsulfonyl) picolinamide]: the results for the 50% inhibitory concentration (IC50) in test [1] (setting [3]) and in test [2] (setting [4]) were < 250 nM and ≥ 5000 nM, respectively.
As to `Cc1cc([C@@H](C)Nc2ccc(Cl)nc2C(=O)NS(C)(=O)=O)c2nc(N3C[C@H]4C[C@@H]3C[C@H]4c3ccn(C)n3)n(C)c(=O)c2c1` (relative stereo) [Compound 355, 6-chloro-3-(((R)-1-(3,6-dimethyl-2-((1R*,4S*,5R*)-5-(1-methyl-1H-pyrazol-3-yl)-2-azabicyclo[2.2.1]heptan-2-yl)-4-oxo-3,4-dihydroquinazolin-8-yl)ethyl)amino)-N-(methylsulfonyl) picolinamide], the results for the IC50 in test [1] (setting [3]) and in test [2] (setting [4]) were < 250 nM and 1000 to 5000 nM, respectively.
On to `Cc1cc([C@@H](C)Nc2ccc(Cl)nc2C(=O)NS(C)(=O)=O)c2nc(N3Cc4cn(CCO)nc4C3)n(C)c(=O)c2c1` [Compound 149, (R)-6-chloro-3-((1-(2-(2-(2-hydroxyethyl)-2,6-dihydropyrrolo[3,4-c]pyrazol-5(4H)-yl)-3,6-dimethyl-4-oxo-3,4-dihydroquinazolin-8-yl)ethyl)amino)-N-(methylsulfonyl) picolinamide], for which the half-maximal inhibitory concentration (IC50) was in the range of 250 to 500 nM in test [1] (setting [3]) and 1000 to 5000 nM in test [2] (setting [4]).
Turning to `Cc1cc([C@@H](C)Nc2ccc(Cl)nc2C(=O)NS(C)(=O)=O)c2nc(N3CCN(c4ccnc(C(F)(F)F)n4)CC3)n(C)c(=O)c2c1` [Compound 589, (R)-6-chloro-3-((1-(3,6-dimethyl-4-oxo-2-(4-(2-(trifluoromethyl)pyrimidin-4-yl)piperazin-1-yl)-3,4-dihydroquinazolin-8-yl)ethyl)amino)-N-(methylsulfonyl) picolinamide], the IC50 was 250 to 500 nM in test [1] (setting [5]) and ≥ 5000 nM in test [2] (setting [6]).
For `Cc1cc([C@@H](C)Nc2ccc(Cl)nc2C(=O)NS(C)(=O)=O)c2nc(N3CCC(c4nc(C)n(C)n4)CC3)n(C)c(=O)c2c1` [Compound 459, (R)-6-chloro-3-((1-(2-(4-(1,5-dimethyl-1H-1,2,4-triazol-3-yl)piperidin-1-yl)-3,6-dimethyl-4-oxo-3,4-dihydroquinazolin-8-yl)ethyl)amino)-N-(methylsulfonyl) picolinamide], the IC50 was < 250 nM in test [1] (setting [5]) and ≥ 5000 nM in test [2] (setting [6]).
Consider `Cc1cc([C@@H](C)Nc2ccc(Cl)nc2C(=O)NS(C)(=O)=O)c2nc(N3C[C@@H]4[C@H](C3)[C@H]4c3nnc(C)n3C(F)F)n(C)c(=O)c2c1` [Compound 644, 6-chloro-3-(((R)-1-(2-((1R,5S,6R)-6-(4-(difluoromethyl)-5-methyl-4H-1,2,4-triazol-3-yl)-3-azabicyclo[3.1.0]hexan-3-yl)-3,6-dimethyl-4-oxo-3,4-dihydroquinazolin-8-yl)ethyl)amino)-N-(methylsulfonyl) picolinamide], for which the results for the IC50 in test [1] (setting [5]) and in test [2] (setting [6]) were 250 to 500 nM and ≥ 5000 nM, respectively.
For `Cc1cc([C@@H](C)Nc2ccc(Cl)nc2C(=O)NS(C)(=O)=O)c2nc(N3CCC[C@H](c4cnc(C)cn4)C3)n(C)c(=O)c2c1` (relative stereo) [Compound 585, 6-chloro-3-(((R)-1-(3,6-dimethyl-2-((R*)-3-(5-methylpyrazin-2-yl)piperidin-1-yl)-4-oxo-3,4-dihydroquinazolin-8-yl)ethyl)amino)-N-(methylsulfonyl) picolinamide], in that order: 250 to 500 nM and ≥ 5000 nM.
As to `Cc1cc([C@@H](C)Nc2ccc(Cl)nc2C(=O)NS(C)(=O)=O)c2nc(-c3ccc4nn(C)cc4c3)n(C)c(=O)c2c1` [Compound 775, (R)-6-chloro-3-((1-(3,6-dimethyl-2-(2-methyl-2H-indazol-5-yl)-4-oxo-3,4-dihydroquinazolin-8-yl)ethyl)amino)-N-(methylsulfonyl) picolinamide], the IC50 is < 250 nM in test [1] (setting [5]) and 1000 to 5000 nM in test [2] (setting [6]).
In the same order, the values of `Cc1cc([C@@H](C)Nc2ccc(Cl)nc2C(=O)NS(C)(=O)=O)c2nc(N3CC[C@H](Oc4ccc(F)cc4)C3)n(C)c(=O)c2c1` (relative stereo) [Compound 691, 6-chloro-3-(((R)-1-(2-((R*)-3-(4-fluorophenoxy)pyrrolidin-1-yl)-3,6-dimethyl-4-oxo-3,4-dihydroquinazolin-8-yl)ethyl)amino)-N-(methylsulfonyl) picolinamide] are 250 to 500 nM and ≥ 5000 nM.
For `Cc1cc([C@@H](C)Nc2ccc(Cl)nc2C(=O)NS(C)(=O)=O)c2nc(N3CCC[C@@H](c4cnccn4)C3)n(C)c(=O)c2c1` (relative stereo) [Compound 618, 6-chloro-3-(((R)-1-(3,6-dimethyl-4-oxo-2-((R*)-3-(pyrazin-2-yl)piperidin-1-yl)-3,4-dihydroquinazolin-8-yl)ethyl)amino)-N-(methylsulfonyl) picolinamide], in that order: 250 to 500 nM and 1000 to 5000 nM.
With `Cc1cc([C@@H](C)Nc2ccc(Cl)nc2C(=O)NS(C)(=O)=O)c2nc(N3CC[C@H](Oc4ccc(F)cn4)C3)n(C)c(=O)c2c1` [Compound 513, 6-chloro-3-(((R)-1-(2-((S)-3-((5-fluoropyridin-2-yl)oxy)pyrrolidin-1-yl)-3,6-dimethyl-4-oxo-3,4-dihydroquinazolin-8-yl)ethyl)amino)-N-(methylsulfonyl) picolinamide], the IC50 is 250 to 500 nM in test [1] (setting [5]) and ≥ 5000 nM in test [2] (setting [6]).
With `COc1nccc(N2C[C@H]3C[C@@H]2CN3c2nc3c([C@@H](C)Nc4ccc(Cl)nc4C(=O)NS(C)(=O)=O)cc(C)cc3c(=O)n2C)n1` [Compound 582, 6-chloro-3-(((R)-1-(2-((1R,4R)-5-(2-methoxypyrimidin-4-yl)-2,5-diazabicyclo [2.2.1]heptan-2-yl)-3,6-dimethyl-4-oxo-3,4-dihydroquinazolin-8-yl)ethyl)amino)-N-(methylsulfonyl) picolinamide], the IC50 was 250 to 500 nM in test [1] (setting [5]) and ≥ 5000 nM in test [2] (setting [6]).
For the molecule `[2H]C([2H])([2H])n1nccc1[C@H]1[C@@H]2CN(c3nc4c([C@@H](C)Nc5ccc(Cl)nc5C(=O)NS(C)(=O)=O)cc(C)cc4c(=O)n3C)C[C@@H]21` [Compound 494, 6-chloro-3-(((R)-1-(3,6-dimethyl-2-((1R,5S,6R)-6-(1-(methyl-d3)-1H-pyrazol-5-yl)-3-azabicyclo[3.1.0]hexan-3-yl)-4-oxo-3,4-dihydroquinazolin-8-yl)ethyl)amino)-N-(methylsulfonyl) picolinamide], the figures for the half-inhibitory concentration (IC50) in test [1] (setting [5]) and in test [2] (setting [6]) were < 250 nM and 1000 to 5000 nM, respectively.
As to `Cc1cc([C@@H](C)Nc2ccc(Cl)nc2C(=O)NS(C)(=O)=O)c2nc(N3CCC(c4nn(C)cc4F)CC3)n(C3CC3)c(=O)c2c1` [Compound 410, (R)-6-chloro-3-((1-(3-cyclopropyl-2-(4-(4-fluoro-1-methyl-1H-pyrazol-3-yl)piperidin-1-yl)-6-methyl-4-oxo-3,4-dihydroquinazolin-8-yl)ethyl)amino)-N-(methylsulfonyl) picolinamide], the IC50 in test [1] (setting [3]) was 250 to 500 nM; in test [2] (setting [4]) it was ≥ 5000 nM.
`Cc1cc([C@@H](C)Nc2ccc(Cl)nc2C(=O)NS(C)(=O)=O)c2nc(N3CCn4ncc(F)c4C3)n(C)c(=O)c2c1` [Compound 711, (R)-6-chloro-3-((1-(2-(3-fluoro-6,7-dihydropyrazolo[1,5-a]pyrazin-5(4H)-yl)-3,6-dimethyl-4-oxo-3,4-dihydroquinazolin-8-yl)ethyl)amino)-N-(methylsulfonyl) picolinamide]: the IC50 fell in the range of 250 to 500 nM in test [1] (setting [5]) and 1000 to 5000 nM in test [2] (setting [6]).
For `Cc1cc([C@@H](C)Nc2ccc(Cl)nc2C(=O)NS(C)(=O)=O)c2nc(N3Cc4cn(-c5ccc(C#N)cn5)nc4C3)n(C)c(=O)c2c1` [Compound 219, (R)-6-chloro-3-((1-(2-(2-(5-cyanopyridin-2-yl)-2,6-dihydropyrrolo[3,4-c]pyrazol-5(4H)-yl)-3,6-dimethyl-4-oxo-3,4-dihydroquinazolin-8-yl)ethyl)amino)-N-(methylsulfonyl) picolinamide], the IC50 in test [1] (setting [3]) is < 250 nM; in test [2] (setting [4]), 1000 to 5000 nM.
`Cc1cc([C@@H](C)Nc2ccc(Cl)nc2C(=O)NS(=O)(=O)C2COC2)c2nc(N3Cc4cn(-c5ccccc5C)nc4C3)n(C)c(=O)c2c1` [Compound 628, (R)-6-chloro-3-((1-(3,6-dimethyl-4-oxo-2-(2-(o-tolyl)-2,6-dihydropyrrolo[3,4-c]pyrazol-5(4H)-yl)-3,4-dihydroquinazolin-8-yl)ethyl)amino)-N-(oxetan-3-ylsulfonyl)picolinamide]: the IC50 is 250 to 500 nM in test [1] (setting [5]) and ≥ 5000 nM in test [2] (setting [6]).
Regarding `Cc1cc([C@@H](C)Nc2ccc(Cl)nc2C(=O)NS(=O)(=O)c2ccncc2)c2nc(N3Cc4ccc(F)cc4C3)n(C)c(=O)c2c1` [Compound 170, (R)-6-chloro-3-((1-(2-(5-fluoroisoindolin-2-yl)-3,6-dimethyl-4-oxo-3,4-dihydroquinazolin-8-yl)ethyl)amino)-N-(pyridin-4-ylsulfonyl)picolinamide], the results for the concentration for half-maximal inhibition (IC50) in test [1] (setting [3]) and in test [2] (setting [4]) were < 250 nM and ≥ 5000 nM, respectively.
For the molecule `Cc1cc([C@@H](C)Nc2ccc(Cl)nc2C(=O)NS(C)(=O)=O)c2nc(N3CCN(c4ccc(N)nc4)CC3)n(C)c(=O)c2c1` [Compound 174, (R)-3-((1-(2-(4-(6-aminopyridin-3-yl)piperazin-1-yl)-3,6-dimethyl-4-oxo-3,4-dihydroquinazolin-8-yl)ethyl)amino)-6-chloro-N-(methylsulfonyl) picolinamide], the IC50 is < 250 nM in test [1] (setting [3]) and 1000 to 5000 nM in test [2] (setting [4]).
